Assay results taken from patent publication US6440434B1, “Skin care composition” (Conopco, Inc., priority 1999, dated 2002).
Read-outs that look alike come from different tables or passages of the source.

Assays:
[1] = tested on: acyl CoA retinol transferase (ARAT); assay: in vitro Microsomal Assay of retinol esterification, ARAT catalyzed (retinyl palmitate); type: biochemical, bovine; settings: solvent blank = 100% ester formation
Experimental: (§1) A solution containing 0.1 M sodium phosphate pH 7 buffer, 5 mM dithiothreitol, 2 mg/ml bovine serum albumin, 40 micromolar palmitoyl CoA, 40 micromolar dilauroyl phosphatidyl choline, 10 micromolar retinol and a test compound or solvent blank, was incubated for 1 hour at 37° C. with a microsomal fraction isolated from bovine retinal pigment epithelial cells. After incubation, the reaction was quenched by addition of an equal volume of ethanol, and the retinyl esters formed (retinyl palmitate from the ARAT catalyzed reaction, and retinyl laurate from the LRAT catalyzed reaction) were extracted with hexane.

[2] = tested on: LRAT and ARAT catalyzed retinol esterification; assay: in vitro Microsomal Assay, retinol esterification overall (statements in words); type: biochemical, bovine
Experimental: as §1

[3] = target: T1, lecithin retinol acyl transferase (LRAT) (Bos taurus, UniProt Q9BGL2); assay: in vitro Microsomal Assay of retinol esterification, LRAT catalyzed (retinyl laurate); type: biochemical, bovine; settings: solvent blank = 100% ester formation
T1 sequence (Q9BGL2 1-230): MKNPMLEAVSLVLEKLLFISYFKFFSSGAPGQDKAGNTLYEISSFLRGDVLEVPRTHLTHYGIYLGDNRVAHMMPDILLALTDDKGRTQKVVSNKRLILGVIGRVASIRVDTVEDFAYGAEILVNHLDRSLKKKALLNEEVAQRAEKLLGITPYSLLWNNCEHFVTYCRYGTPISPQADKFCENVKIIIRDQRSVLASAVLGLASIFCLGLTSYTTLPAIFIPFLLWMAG
Experimental: as §1

[4] = tested on: decorin synthesis in human dermal fibroblasts; assay: Dot blot assay for decorin in dermal fibroblast conditioned medium; type: cell-based
Experimental: (§2) Primary human foreskin fibroblasts at passage 2 (P2) were seeded into 12-well plates at 10000 cells/cm^2 and maintained for 24 hours in an atmosphere of 5% carbon dioxide and 4% oxygen in Dulbeccos Modified Eagles Medium (DMEM) supplemented with 10% foetal calf serum. After this time the cells were washed with serum free DMEM and then incubated in fresh serum free DMEM for a further 60 hours. The fibroblast monolayers were then washed again with serum free DMEM. Test reagents and vehicle controls were added to the cells in triplicate in a final volume of 0.4 ml/well fresh serum free DMEM and incubated for a further 24 hours. This fibroblast conditioned medium was either analysed immediately or snap frozen in liquid nitrogen and stored at −70° C. for future analysis. The cells were then counted and data from the dot-blot analysis subsequently standardised to cell number.
(§3) Samples of conditioned medium from dermal fibroblasts treated with vehicle (as a control) or test reagents were supplemented with 20 mM dithiothreitol (1:10 dilution of 200 mM stock solution) and 0.1% sodium dodecylsulphate (1:100 dilution of 10% stock solution), mixed well and then incubated at 75° C. for 2 minutes. A standard for the assay was generated by serial dilution of neat fibroblast conditioned medium from fibroblasts seeded at 10000 cells/cm^2 in a 175 cm^2 flask and maintained in serum free DMEM as described above.
Assay samples were subsequently applied in triplicate to a prewetted sheet of Immobilon-P transfer membrane using the 96-well Bio-Dot Apparatus from Bio-Rad as described in the manufacturers guidelines. Approximately 200 μl of medium was applied per well. The medium was allowed to filter through the membrane under gravity (30 minutes) after which the membrane was washed twice with PBS (200 μl). These PBS washes were allowed to filter through the membrane under gravity (2×15 minutes). The Bio-Dot apparatus was then attached to a vacuum manifold and a third and final PBS wash carried out under suction. The apparatus was disassembled, the membrane removed and quickly cut as required before being placed in blocking buffer overnight at 4° C. Membranes prepared for decorin analysis were blocked with 3% (w/v) BSA/0.1% (v/v) Tween 20 in PBS, whilst those for procollagen-I analysis were blocked with 5% (w/v) non fat dried milk powder/0.05% Tween 20 in PBS.
Following this the Immobilon strips were again washed with TBS/Tween 20 (3×5 minutes) before being allowed to dry in air at room temperature. The dried membranes were wrapped in cellophane and exposed to a Molecular Dynamics storage phosphor screen for 16-18 hours. At the end of this time the exposed screen was scanned by a phosphorimager (Molecular Dynamics Phosphorimager SF) using ImageQuant™ software. Dot intensity was assessed by computer-assisted image analysis using the quantification tools in ImageQuant™, standardised to cell number and the effects of various test reagents on decorin and procollagen-I synthesis were determined relative to a vehicle treated control value of 100 arbitrary units.

[5] = tested on: procollagen-I synthesis in human dermal fibroblasts; assay: Dot blot assay for procollagen-I in dermal fibroblast conditioned medium; type: cell-based; settings: 0.01 μM of each active; for Procollagen 1: Table 7, PA/Retinol set, control = 100%
Experimental: as §2, §3
Assay samples were subsequently applied in triplicate to a prewetted sheet of Immobilon-P transfer membrane using the 96-well Bio-Dot Apparatus from Bio-Rad as described in the manufacturers guidelines. […]
Following this the Immobilon strips were again washed with TBS/Tween 20 (3×5 minutes) before being allowed to dry in air at room temperature. […] Dot intensity was assessed by computer-assisted image analysis using the quantification tools in ImageQuant™, standardised to cell number and the effects of various test reagents on decorin and procollagen-I synthesis were determined relative to a vehicle treated control value of 100 arbitrary units.

[6] = Table 7, PA/trans Retinoic acid set, 0.01 μM of each active, control = 100%

Row | Compound | % INHIBITION, ARAT ([1]; 100 μM test compound) [%] | % INHIBITION, LRAT ([3]; 100 μM test compound) [%] | further results
1 | COc1cc(C=O)ccc1O [vanillin, reference compound] | 0 |  | 
2 | CC(C)=CCCC(C)=CCCC(C)=CCO [Farnesol] | 43 |  | retinol esterification inhibition (in words) [2]: inhibit retinol esterification; % INHIBITION, ARAT ([1]; 10 μM test compound): 20%
3 | C=C(C)C1CC=C(C)C(=O)C1 (stereo not shown) [carvone, reference compound] | 0 |  | 
4 | O=c1cc[nH]c(=O)[nH]1 [uracil, reference compound] | 0 |  | 
5 | C/C=C/C(=O)C1=C(C)CCCC1(C)C [Beta damascone] |  | 92 | % INHIBITION, LRAT ([3]; 10 μM test compound): 52%
6 | CC(=O)CCC1C(C)=CCCC1(C)C (stereo not drawn) [dihydro alpha ionone, reference compound] | 13 | 18 | 
7 | Sandanol | 15 | 43 | 
8 | CC1=C(/C=C/C(C)=C/C=C/C(C)=C/C(=O)O)C(C)(C)CCC1 [trans Retinoic acid, reference compound] |  |  | Decorin [4, 6]: 102.8%
9 | Isobutyl ionone | 8 | 45 | 
10 | CC12CCC(CC1)C(C)(C)O2 [eucalyptol, reference compound] | 0 |  | 
11 | CCCC(O)CCC1C(C)CCCC1(C)C (stereo not shown) [Timberol] |  | 33 | 
12 | CC1=CCC(CCC(C)CO)C1(C)C (stereo not shown) [Brahmanol] | 70 | 75 | 
13 | CC(C)(O)CCCC1=CCC(C=O)CC1 (stereo not shown) [Lyral] | 76 |  | 
14 | C/C=C/C(=O)C1=C(C)C=CCC1(C)C [Damascenone] |  | 79 | % INHIBITION, LRAT ([3]; 10 μM test compound): 29%
15 | Cc1ccc(C(C)C)c(O)c1 [thymol, reference compound] | 0 |  | 
16 | CCC(=O)/C=C/C1C(C)=CCCC1(C)C (stereo not drawn) [Alpha methyl ionone] | 67 | 77 | 
17 | CCCCCCCCCCC/C=C\CCCCC(=O)O [PA, Petroselinic acid] |  |  | Procollagen-I ([5]; Table 6, 24 hours, vehicle control = 100): 85.1%; Procollagen 1 [5]: 86.0%; Decorin ([4]; Table 6, 0.01 μM, 24 hours, vehicle control = 100): 101.8%; Decorin ([4]; Table 7, PA/Retinyl Linoleate set, 0.01 μM, control = 100%): 107.5%; Decorin [4, 6]: 100.5%
18 | CCCCC/C=C\C/C=C\CCCCCCCC(=O)N(CCO)CCO [Linoleamide-DEA (LODEA), Linoleamide-DEA] |  | 51 | retinol esterification inhibition (in words) [2]: potent retinol esterification inhibitors; % INHIBITION, LRAT ([3]; 10 μM test compound): 11%
19 | CCCCC/C=C\C/C=C\CCCCCCCC(=O)OC/C=C(C)/C=C/C=C(C)/C=C/C1=C(C)CCCC1(C)C [Retinyl Linoleate] |  |  | Decorin ([4]; Table 7, PA/Retinyl Linoleate set, 0.1 μM, control = 100%): 109.1%

Row | Compound | % INHIBITION, ARAT ([1]; 100 μM test compound) [%] | % INHIBITION, LRAT ([3]; 100 μM test compound) [%] | further results
20 | CC=CC(=O)C1CCC(C)(C)C=C1C (stereo not shown) [Isodamascone] | 80 | 92 | 
21 | CC12CCC(CC1=O)C2(C)C (stereo not shown) [camphor, reference compound] | 0 |  | 
22 | CCOC(=O)C1=C(C)C=CCC1(C)C [Ethyl saffranate] |  | 49 | 
23 | CC1=CC(C)C(CO)C(C)C1 (stereo not shown) [isocyclogeraniol, reference compound] | 18 | 16 | 
24 | CC1=C(/C=C/C(C)=C/C=C/C(C)=C/CO)C(C)(C)CCC1 [Retinol, reference compound] |  |  | Procollagen 1 [5]: 95.0%
25 | C/C=C/C(=O)C1C(C)C=CCC1(C)C (stereo not shown) [Delta damascone] |  | 95 | % INHIBITION, LRAT ([3]; 10 μM test compound): 64%
26 | CC12CCC(C1)C(C)(C)C2O (stereo not shown) [fenchyl alcohol, reference compound] | 12 |  | 
27 | CC(=O)c1cc2c(cc1C)C(C)(C)C(C)CC2(C)C (stereo not shown) [Tonalid] | 50 |  | 
28 | CCCCCCCCCCCCC/C=C/[C@@H](O)[C@H](CO)NC(C)=O [Acetyl Sphingosine] | 62 | 50 | retinol esterification inhibition (in words) [2]: potent retinol esterification inhibitors; % INHIBITION, LRAT ([3]; 10 μM test compound): 10%; % INHIBITION, ARAT ([1]; 10 μM test compound): 19%
29 | O=CC=Cc1ccccc1 [cinnamaldehyde, reference compound] | 0 |  | 
30 | Nc1ncnc2nc[nH]c12 [adenine, reference compound] | 0 |  | 
31 | Sandalone | 23 | 12 | 
32 | Cc1ncc(C[n+]2csc(CCO)c2C)c(N)n1 [thiamine, reference compound] | 0 |  | 
33 | O=C(NCO)N(CO)C1(CO)C(=O)NC(=O)N1CO (stereo not shown) [diazolidinyl urea, reference compound] | 0 |  | 
34 | CC(C)=CCC/C(C)=C/CC/C(C)=C/CC/C(C)=C/CO [Geranyl Geraniol] | 81 |  | retinol esterification inhibition (in words) ([2]; listed as Geranyl geraniol): substantially more potent esterification inhibitor, than farnesol; retinol esterification inhibition (in words) ([2]; listed as geranyl geraniol): inhibit retinol esterification; % INHIBITION, ARAT ([1]; 10 μM test compound): 38%
35 | N[C@@H](Cc1c[nH]c2ccccc12)C(=O)O [tryptophan, reference compound] | 0 |  | 
36 | CCCCC/C=C\C/C=C\CCCCCCCC(=O)NCCO [Linoleamide-MEA (LOMEA), Linoleamide-MEA] |  |  | retinol esterification inhibition (in words) [2]: potent retinol esterification inhibitors; Decorin ([4]; Table 6, 0.1 μg/ml, 24 hours, vehicle control = 100): 133.9%
37 | CC(=O)/C(C)=C/C1C(C)=CCCC1(C)C (stereo not shown) [Gamma methyl ionone] |  | 38 | 
